Measurements as given in patent publication US20190282558A1, “Methods of Treating Zika Virus Infection” (Emergent Virology LLC, priority 2016, published 2019).
Where two headings read alike, the source gives them in different places.

Legend:
Format in all cases: cell-based
[1] = In vitro cell cytotoxicity (CellTiter-Glo) in Vero cells; conditions: African green monkey, 3-5 days, max concentration 500 or 1000 μM, * = average of two values
[2] = system: Zika virus, FSS 13025 strain (ZIKV, Cambodia 2010); test: Yield reduction assay followed by plaque assay in Vero cells, ZIKV Cambodia 2010; conditions: for IC50: Zika virus, 96 h, read-out: ZIKV, Cambodian 2010 IC50; for IC50 (summary in words): summary of Table 3
Protocol: (§1) The iminosugar compounds set forth in Table 4, below, were evaluated for antiviral activity against Zika virus, FSS 13025 strain (ZIKV, Cambodia 2010) and PR ABC strain (ZIKV, PR2015) in an yield reduction assay followed by a plaque assay.
In the yield reduction assay, Vero cells were seeded in 24-well plates and incubated overnight. The next day, serial dilutions of a given compound were prepared at 300 μM, 100 μM, 30 μM, 10 μM, and 3.0 μM. Growth medium was removed from the cells and the serial dilutions of the given compound were added in duplicate for one hour. Zika virus, FSS 13025 strain (ZIKV, Cambodia 2010) was added at a multiplicity of infection (MOI) of 0.01 for one hour. Growth medium was added to 1 mL and the cells were incubated for 4 days. Thereafter, cell supernatants were harvested, cleared of cell debris by centrifugation, and stored at −80° C. until further analysis for viral content in a plaque assay.
Plaque assays were performed by seeding Vero cells in 24-well plates and allowing the cells to adhere overnight. The next day each of the harvested supernatants from the yield-reduction assay were serially diluted 10-fold, growth medium was removed from the cells, and the adhered cells were infected with the dilutions of the supernatants for 1 h. Methylcellulose was added and the cells were incubated for 3 days. Plaques were visualized by staining the cell monolayer with crystal violet. Relative inhibition was calculated using IDBS XLFIT analysis program.
(§2) The duplicate titers for virus-only (vehicle control) were averaged and used as 0% inhibition. Efficacy data for the compounds were reported as the mean of the duplicates, including the standard deviation (SD) and coefficient of variation (% CV). FIGS. 2A, 2B, 3A, 3B, 4A, 4B, 5A, 5B, 6A, 6B, 7A, 7B, 8A, 8B, 9A, 9B, 10A, 10B, 11A, 11B, 12A, 12B, 13A, 13B, 14A, 14B, and 15 show the in vitro inhibitory effect of the iminosugar compounds against Zika virus, FSS 13025 strain, as set forth in Table 3 below.

[3] = system: Zika virus, PR ABC strain (ZIKV, PR2015); test: Yield reduction assay followed by plaque assay in Vero cells, ZIKV PR2015; conditions: 120 h, read-out: ZIKV, PR2015 IC50
Protocol: as §1
In the yield reduction assay, Vero cells were seeded in 24-well plates and incubated overnight. The next day, serial dilutions of a given compound were prepared at 200 μM, 100 μM, 20 μM, 4 μM, 0.8 μM, 0.16 μM, 0.03 μM, and 0.01 μM. Growth medium was removed from the cells and the serial dilutions of the given compound were added in duplicate for one hour. Zika virus, PR ABC strain (ZIKV, PR2015) was added at a multiplicity of infection (MOI) of 0.01 for one hour. Growth medium was added to 1 mL and the cells were incubated for 5 days. Thereafter, cell supernatants were harvested, cleared of cell debris by centrifugation, and stored at −80° C. until further analysis for viral content in a plaque assay.
Plaque assays were performed by seeding Vero cells in 24-well plates and allowing the cells to adhere overnight. The next day each of the harvested supernatants from the yield-reduction assay were serially diluted 10-fold, growth medium was removed from the cells, and the adhered cells were infected with the dilutions of the supernatants for 1 h. The cells were incubated with 0.8% carboxymethyl cellulose (CMC) for 3 days. At the end of the incubation, CMC overlay was removed, and the cells were permeabilized with an 80%/20% (V/V) mixture of ethanol and methanol for 10 min at −20° C. Plaques were visualized by performing an immunostaining assay with monoclonal 4G2 (ATCC) which was detected by HRP-conjugated goat anti-mouse antibody and visualized using HRP-conjugated goat anti-mouse polyclonal antibodies. Relative inhibition was calculated using IDBS XLFIT analysis program.
as §2

[4] = Vero cells, MOI 0.01, 4 days, plaque assay of supernatants, * = average of multiple data points
[5] = Vero cells, MOI 0.01, 5 days, plaque assay with immunostaining, * = average of multiple data points

IC50 [2, 4] [µM]	SMILES	CC50 [1] [µM]	also measured
18.9	O=[N+]([O-])c1cc(-c2ncccn2)ccc1NCCCCCCN1C[C@H](O)[C@@H](O)[C@H](O)[C@H]1CO [Compound 7, (2R,3R,4R,5S)-2-(hydroxymethyl)-1-(6-((2-nitro-4-(pyrimidin-2-yl)phenyl)amino)hexyl)piperidine-3,4,5-triol]	> 1000	IC50 (summary in words) [2]: low micromolar activity
> 100	O=[N+]([O-])c1cc(-c2ccncn2)ccc1NCCCCCCN1C[C@H](O)[C@@H](O)[C@H](O)[C@H]1CO [Compound 24, (2R,3R,4R,5S)-2-(hydroxymethyl)-1-(6-((2-nitro-4-(pyrimidin-4-yl)phenyl)amino)hexyl)piperidine-3,4,5-triol]	816	–
30.4	[N-]=[N+]=Nc1ccc(NCCCCN2C[C@H](O)[C@@H](O)[C@H](O)[C@H]2CO)c([N+](=O)[O-])c1 [Compound 17, (2R,3R,4R,5S)-1-(4-((4-azido-2-nitrophenyl)amino)butyl)-2-(hydroxymethyl)piperidine-3,4,5-triol]	350	IC50 (summary in words) [2]: low micromolar activity
> 100	O=[N+]([O-])c1ccc(-n2cnnn2)cc1NCCCCCCN1C[C@H](O)[C@@H](O)[C@H](O)[C@H]1CO [Compound 9, (2R,3R,4R,5S)-2-(hydroxymethyl)-1-(6-((2-nitro-5-(1H-tetrazol-1-yl)phenyl)amino)hexyl)piperidine-3,4,5-triol]	> 1000	–
47	O=[N+]([O-])c1cc(-c2ccccn2)ccc1NCCCCCCN1C[C@H](O)[C@@H](O)[C@H](O)[C@H]1CO [Compound 22, (2R,3R,4R,5S)-2-(hydroxymethyl)-1-(6-((2-nitro-4-(pyridin-2-yl)phenyl)amino)hexyl)piperidine-3,4,5-triol]	99.8	IC50 (summary in words) [2]: low micromolar activity
–	CCCCN1C[C@H](O)[C@@H](O)[C@H](O)[C@H]1CO [UV-1, (2R,3R,4R,5S)-1-butyl-2-(hydroxymethyl)piperidine-3,4,5-triol]	–	IC50 [3, 5]: 3 µM
–	CCCCCCCCCN1C[C@H](O)[C@@H](O)[C@H](O)[C@H]1CO [UV-2, (2R,3R,4R,5S)-2-(hydroxymethyl)-1-nonylpiperidine-3,4,5-triol]	–	IC50 ([3]; Vero): 95 µM
–	OC[C@@H]1[C@@H](O)[C@H](O)[C@@H](O)CN1CCCCCCNc1c(F)cc(F)cc1F [Compound 18, (2R,3R,4R,5S)-2-(hydroxymethyl)-1-(6-((2,4,6-trifluorophenyl)amino)hexyl)piperidine-3,4,5-triol trifluoroacetic acid]	413	IC50 ([2]; Vero): > 100 µM
88.5	O=[N+]([O-])c1cc(NCCCCCCN2C[C@H](O)[C@@H](O)[C@H](O)[C@H]2CO)ccc1-n1cnnn1 [Compound 14, (2R,3R,4R,5S)-2-(hydroxymethyl)-1-(6-((3-nitro-4-(1H-tetrazol-1-yl)phenyl)amino)hexyl)piperidine-3,4,5-triol]	> 1000	–
69.3	O=[N+]([O-])c1cc(-n2cnnn2)ccc1NCCCCCCN1C[C@H](O)[C@@H](O)[C@H](O)[C@H]1CO [Compound 5, (2R,3R,4R,5S)-2-(hydroxymethyl)-1-(6-((2-nitro-4-(1H-tetrazol-1-yl)phenyl)amino)hexyl)piperidine-3,4,5-triol]	> 1000	–
140	OC[C@@H]1[C@@H](O)[C@H](O)[C@@H](O)CN1CCCCCCNc1ccc(-n2ncnn2)cc1 [Compound 19, (2R,3R,4R,5S)-1-(6-((4-(2H-tetrazol-2-yl)phenyl)amino)hexyl)-2-(hydroxymethyl)piperidine-3,4,5-triol]	953	–
77.1	N/C(=N/O)c1ccc(NCCCCCCN2C[C@H](O)[C@@H](O)[C@H](O)[C@H]2CO)c([N+](=O)[O-])c1 [Compound 4, (E)-N′-hydroxy-3-nitro-4-((6-((2R,3R,4R,5S)-3,4,5-trihydroxy-2-(hydroxymethyl)piperidin-1-yl)hexyl)amino)benzimidamide]	> 1000	–
> 100	O=[N+]([O-])c1cc(CN2CCCO2)ccc1NCCCCCCN1C[C@H](O)[C@@H](O)[C@H](O)[C@H]1CO [Compound 21, (2R,3R,4R,5S)-2-(hydroxymethyl)-1-(6-((4-(isoxazolidin-2-ylmethyl)-2-nitrophenyl)amino)hexyl)piperidine-3,4,5-triol]	2130	–
> 100	O=[N+]([O-])c1ccc(N2CCNCC2)cc1NCCCCCCN1C[C@H](O)[C@@H](O)[C@H](O)[C@H]1CO [Compound 10, (2R,3R,4R,5S)-2-(hydroxymethyl)-1-(6-((2-nitro-5-(piperazin-1-yl)phenyl)amino)hexyl)piperidine-3,4,5-triol]	> 1000	–
17	O=[N+]([O-])c1cc(-c2cccnc2)ccc1NCCCCCCN1C[C@H](O)[C@@H](O)[C@H](O)[C@H]1CO [Compound 25, (2R,3R,4R,5S)-2-(hydroxymethyl)-1-(6-((2-nitro-4-(pyridin-3-yl)phenyl)amino)hexyl)piperidine-3,4,5-triol]	101	IC50 (summary in words) [2]: low micromolar activity
> 100	CN(C)Cc1ccc([N+](=O)[O-])c(NCCCCCCN2C[C@H](O)[C@@H](O)[C@H](O)[C@H]2CO)c1 [Compound 16, (2R,3R,4R,5S)-1-(6-((5-((dimethylamino)methyl)-2-nitrophenyl)amino)hexyl)-2-(hydroxymethyl)piperidine-3,4,5-triol]	> 1000	–
> 100	O=[N+]([O-])c1cc(NCCCCCCN2C[C@H](O)[C@@H](O)[C@H](O)[C@H]2CO)ccc1-n1cccn1 [Compound 13, (2R,3R,4R,5S)-2-(hydroxymethyl)-1-(6-((3-nitro-4-(1H-pyrazol-1-yl)phenyl)amino)hexyl)piperidine-3,4,5-triol]	> 1000	–
–	OC[C@@H]1[C@@H](O)[C@H](O)[C@@H](O)CN1CCCCCCNc1ncc2[nH]cnc2n1 [Compound 20, (2R,3R,4R,5S)-1-(6-((7H-purin-2-yl)amino)hexyl)-2-(hydroxymethyl)piperidine-3,4,5-triol]	832	IC50 [3, 5]: > 100 µM
–	O=[N+]([O-])c1cc(-n2ncnn2)ccc1NCCCCCCN1C[C@H](O)[C@@H](O)[C@H](O)[C@H]1CO [Compound 6, (2R,3R,4R,5S)-2-(hydroxymethyl)-1-(6-((2-nitro-4-(2H-tetrazol-2-yl)phenyl)amino)hexyl)piperidine-3,4,5-triol]	953	–
106	O=[N+]([O-])c1cc(-n2nccn2)ccc1NCCCCCCN1C[C@H](O)[C@@H](O)[C@H](O)[C@H]1CO [Compound 3, (2R,3R,4R,5S)-2-(hydroxymethyl)-1-(6-((2-nitro-4-(2H-1,2,3-triazol-2-yl)phenyl)amino)hexyl)piperidine-3,4,5-triol]	245	–
> 100	O=[N+]([O-])c1cc(-c2cccnn2)ccc1NCCCCCCN1C[C@H](O)[C@@H](O)[C@H](O)[C@H]1CO [Compound 23, (2R,3R,4R,5S)-2-(hydroxymethyl)-1-(6-((2-nitro-4-(pyridazin-3-yl)phenyl)amino)hexyl)piperidine-3,4,5-triol]	5190	–
–	CCCOCCCCCCN1C[C@H](O)[C@@H](O)[C@H](O)[C@H]1CO [UV-3, (2R,3R,4R,5S)-2-(hydroxymethyl)-1-(6-propoxyhexyl)piperidine-3,4,5-triol]	–	IC50 [3, 5]: > 100 µM
